Numbers after ± are expanded uncertainties.
Conditions: 101.33 kPa, Liquid; for viscosity: Falling or rolling sphere viscometry; for mass density: Vibrating tube method

| Compound | viscosity (293.15 K) [mPa·s] | mass density (293.15 K) [kg/m3] | viscosity (298.15 K) [mPa·s] | mass density (298.15 K) [kg/m3] | viscosity (303.15 K) [mPa·s] | mass density (303.15 K) [kg/m3] | viscosity (323.15 K) [mPa·s] | mass density (323.15 K) [kg/m3] | viscosity (343.15 K) [mPa·s] | mass density (343.15 K) [kg/m3] |
| --- | --- | --- | --- | --- | --- | --- | --- | --- | --- | --- |
| NCCO.O=CO [2-hydroxyethylammonium formate] | 67.61 ± 1.1 | 1178.5 ± 25 | 52.01 ± 0.61 | 1175.1 ± 25 | 40.51 ± 0.52 | 1171.7 ± 25 | 18.19 ± 0.26 | 1158.1 ± 25 | 9.698 ± 0.14 | 1144.3 ± 25 |
| O=C[O-].OCC[NH2+]CCO [diethanolammonium formate] | 807.6 ± 98 | 1205 ± 25 | 533.41 ± 56 | 1201.7 ± 25 | 369.63 ± 32 | 1198.3 ± 25 | 106.16 ± 3.9 | 1185 ± 25 | 41.09 ± 0.8 | 1171.7 ± 25 |
